Data as given in a melting point compilation (Tetko et al.; mined from patent text by program, amines drawn as free bases though some values may be those of a salt).

Row | melting point [°C] | SMILES
1 | 256 | CC(=O)N1CCN(CCn2c3ccccc3c(=NN=C3NCCS3)c3ccccc32)CC1
2 | 181 to 191 | COc1cc(C)c2ccccc2n1
3 | 118 to 120 | Cc1cc(-c2cc(COS(C)(=O)=O)c(=O)n(CC=Cc3ccc(Cl)cc3)n2)ccc1F
4 | 201 to 202 | CCOC(=O)c1ccc(/C=C/C(=O)O)cn1
5 | 225 to 227 | C=CC(=O)NCC(=O)Nc1cc(Cl)c(C)c(Cl)c1O
6 | 122 to 125 | CS(=O)(=O)c1ccc(Oc2ccc(CC(=O)O)cc2)cc1
7 | 76 | CC(C)=NOCC(=O)O
8 | 87.5 to 88 | O=C(N1CC1)C(F)(F)C(O)(Cn1cncn1)c1ccc(F)cc1F (stereo not given)
9 | 232 to 234 | Cc1cc2c(N3CCc4ccc(Cl)cc43)ncnc2cn1
10 | 188 to 190 | COc1nc(NCS(=O)(=O)c2ccc(C)cc2)nc(N(C)C)n1
11 | 161 to 162 | Cn1cccc1C1=CC(=O)c2nccnc2C1=O
12 | 120 | CC(=O)N(C)c1c(N(C)C)cc(C(=O)CS(C)(=O)=O)cc1N(C)C
13 | 137 to 138 | CC(=O)N1CCN(c2nc(Cl)ccc2[N+](=O)[O-])CC1
14 | 187 to 188 | N#Cc1c(N)n[nH]c1-c1ccc(Oc2ccccc2)cc1
15 | 145 to 150 | COC(=O)c1nc(-c2ccco2)cc(N)c1Cl
16 | 68 to 71 | CC(C)(N)CNC(=O)Cc1ccccc1
17 | 59.8 to 63.5 | O=C(Cc1cccnc1)N1CCC(=C2c3ccc(Cl)cc3CCc3c(Cl)ccnc32)CC1
18 | 79.5 to 86 | CCN(CC)CCNC(=O)c1cccc2c(=O)c(C)c(-c3cccc(C)c3)oc12
19 | 105 to 107 | Cc1cc(OCCCC(C)(C)C(=O)O)c(C)c(C)c1OCc1ccccc1
20 | > 300 | Cc1ccccc1-c1ccc2c(c1)CCCc1c-2nc2ccc(F)cc2c1C(=O)O
21 | 259 to 263 | CCOC(=O)/C=C/C(=O)Nc1ccc2ncnc(Nc3cccc(Br)c3)c2c1
22 | 232 to 234 | Cc1ccc(N(c2ccc(C)cc2)c2ccc(-c3ccc(-c4ccc(N(c5ccc(C)cc5)c5ccc(C)cc5)cc4)cc3)cc2)cc1
23 | 162 | CCOC(=O)c1ccc(OCC2=CCN(c3ccc(Cl)nn3)CC2)cc1

Row | melting point [°C] | SMILES
24 | 230 to 232 | N#Cc1ccc(Oc2ccc(-c3ccc(Oc4ccc(C#N)c(C#N)c4)cc3)cc2)cc1C#N
25 | 207 to 208 | C1=Cc2c(ccc3cccnc23)OC1
26 | 152 to 153 | CCCn1c(=O)c2nc([C@@H]3CCC[C@H]3c3ccccc3)[nH]c2n(CCC)c1=O (relative stereo)
27 | 184 | Fc1ccc2[nH]cc(CC3CCN(CC4COc5ccc6ncccc6c5O4)CC3)c2c1 (stereo not given)
28 | 121 | CCOC(=O)c1[nH]c(=O)sc1Br
29 | 245 to 250 | Cc1c(F)cccc1C(=O)Nc1ccc(C(=O)N2Cc3ccnn3Cc3ccccc32)cc1
30 | 128 to 129 | CCCCCCCCCCCCCCCCCCNC(=O)OCC(CN)NC(=O)OC (stereo not given)
31 | 152 to 154 | COc1cc(CC(=O)Nc2ccc(C(C)CC(=O)O)cc2)ccc1NC(=O)N1CCc2ccccc21 (stereo not given)
32 | 299 | CCCCn1c(=O)c2cc(OC)c(OC)cc2c2nnc3cc4c(cc3c21)OCO4
33 | 197 to 201 | NC(=O)c1cc(Cl)c(Cl)cc1C(=O)O
34 | 121 to 122 | CC(C)c1nc(CCO)n(Cc2ccncc2)c1Sc1cc(Cl)cc(Cl)c1
35 | 170 to 171 | CNC(=NCCSCc1[nH]cnc1C)P(=O)(O)OC
36 | 107 to 110 | CC(C)(C)c1cc(SCCC(=O)NN)cc(C(C)(C)C)c1O
37 | 151 to 152 | COc1ccc(NC(=O)Cn2c3c(c4cc(Cl)c(Cl)cc42)CCN(C(=O)OC(C)(C)C)CC3)cc1
38 | 73 to 74 | CCOC(=O)/C=C/c1cnn(C)c1-c1cccs1
39 | 104 to 105 | COC(=O)c1cccc(-c2ccc3c(c2)NCC3)c1
40 | 142 to 143 | CN(C)C(=O)CNc1ccncc1[N+](=O)[O-]
41 | 132 to 135 | CC(C)C[C@H](CC(N)=O)CC(=O)O
42 | 209 to 211 | O=C(Cc1ccc(OCc2ccccc2C(=O)O)cc1)NC1(C(=O)O)Cc2ccc(-c3ccc(Cl)cc3)cc2C1 (stereo not given)
43 | 265 to 266 | CC12CCC(=O)NC1CCc1cc(-c3cnc4ccccc4c3)ccc12 (single isomer, unassigned; (+))
44 | 202 to 204 | Cn1nc(-c2ncc(N)nc2-c2ccccc2)ccc1=O
45 | 196 to 197 | CCCCN(CCCC)c1ccc(C=Cc2ccc(C=CC3=C(C#N)C(=C(C#N)C#N)OC3(c3ccccc3)C(F)(F)F)s2)c(OCc2ccccc2)c1 (stereo not given)
46 | 137 to 140 | COc1cc(CNC(=O)c2nc3cn(CCCc4ccccc4)nc3c(=O)[nH]2)ccc1F

Row | melting point [°C] | SMILES
47 | 96 to 100 | COC(=O)CCC(=O)c1ccc(-c2ccc(OC)cc2)cc1
48 | 109 to 111 | CCN1c2ncc(CCc3ccncc3)cc2C(=O)N(C)c2ccc(F)nc21
49 | 112 to 115 | COc1cccc(-c2cncc(OC3SCC(OC(C)=O)C(OC(C)=O)C3OC(C)=O)c2)c1 (stereo not given)
50 | 114 to 115 | CC(C)(C)OC(=O)NCc1ccc2c(c1)CNC2
51 | 168 to 169 | O=C1N(c2ccccc2)c2ccccc2C1(Cc1ccncc1)Cc1ccc([N+](=O)[O-])cc1 (stereo not given)
52 | 234 to 237 | O=C(O)c1ccc(CN2C(=O)C3(COc4cc5c(cc43)OCCO5)c3ccccc32)cc1 (stereo not given)
53 | 112 to 113 | CCO/C(=C(/Oc1ccc(-c2ccc(Cl)cc2)cc1)n1ccnc1)C(C)(C)C
54 | 170 to 173 | COc1cc2c(cc1OS(N)(=O)=O)CC(C)(C)N(C(=O)c1cc(OC)c(OC)c(OC)c1)C2C (stereo not given)
55 | 81 to 83 | CC(=O)Oc1ccccc1C(=O)C1c2ccccc2C(=O)N1CCO[N+](=O)[O-] (stereo not given)
56 | 133 to 135 | CC(=O)Nc1ccc2c(c1)C(=O)N(CCCl)CO2
57 | 198 | CCN(CC)CCCCC1CCN(CC(=O)N2c3ccccc3NC(=O)c3c2ccn3C)CC1
58 | 122 to 123 | COC(=O)C1C(=O)CC(=O)CC1C (stereo not given)
59 | 118 | CC(CO)c1ccc(-c2ccc(F)cc2F)c(O)c1 (stereo not given)
60 | 221 to 223 | CCN1CCN(Cc2ccc3c(c2)-c2[nH]nc(-c4ccsc4)c2C3)CC1
61 | 90 | COC(=O)NCCCCC(=O)OC[C@@H]1CC(c2ccc(-c3ccc(N4C[C@H](Cn5ccnn5)OC4=O)cc3F)cn2)=NO1
62 | 108 to 109 | COC(=O)CC(NSc1ccccc1[N+](=O)[O-])C(=O)O (stereo not given)
63 | 299 | Fc1ccc(-c2nc3n(c2-c2ccnc(Nc4ccccc4)c2)CCS3)cc1
64 | 125 | O=C(O)C(CCc1ccc2c(c1)CCO2)NC(=O)C(F)(F)F (stereo not given)
65 | 101 to 102 | COc1ccccc1OCC(O)CCN1CCN(c2ccccc2)CC1 (stereo not given)
66 | 89 to 91 | Cc1cn([C@H]2CC[C@H](CC(=O)O)C[C@@H]2NC(=O)OC(C)(C)C)c(=O)n(COCc2ccccc2)c1=O
67 | 112 to 122 | CC(Cc1c[nH]c2ccccc12)(NC(=O)OC1C2CC3CC(C2)CC1C3)C(=O)NCC(NC(=O)CSc1ncc[nH]1)c1ccccc1 (stereo not given)

Row | SMILES | melting point [°C]
68 | CCCCC1=NC(=NOC(=O)NC)SC1(C)C | 128 to 130
69 | COC(=O)C1(Cl)SC=CC1=O (stereo not given) | 70 to 71
70 | Cc1ccc([PH](=O)c2ccc(C)cc2)cc1 | 93.7
